Test results reported in patent publication US7872035B2, “Angiotensin II antagonists” (AstraZeneca AB, priority 2001, dated 2011).

How the values were obtained:
[1] = tested on: patients suffering from migraine; assay: Pilot double-blind placebo-controlled crossover trial, prophylactic effect in migraine; type: in vivo, human
Protocol: A study in which the effects of the angiotensin II type 1 receptor antagonist candesartan cilexetil (Atacand®) is compared to that of placebo, was carried out to explore the feasability of giving candesartan cilexetil to patients suffering from, or susceptible to, vascular headache conditions, and especially migraine.
The pilot study was a double-blind placebo-controlled crossover trial on the prophylactic effect of the AT II antagonist candesartan cilexetil performed in patients suffering from migraine.
The study provides preliminary data on the feasibility of administering candesartan cilexetil for preventing migraine. It also provides preliminary data on useful concentrations of candesartan cilexetil in this use.

[2] = tested on: patients having mild-to-moderate hypertension; conditions: hypertensive patients, versus placebo; cited from earlier work

Row | SMILES | relief of symptoms (migraine) ([1]; one patient with a medical history of migraine, treating themself with Atacand 16 mg, relief subjectively noted) | relief of symptoms (migraine) ([1]; the other patient with a medical history of migraine, relief subjectively noted after treatment with Atacand) | incidence of headache [2]
1 | CCOc1nc2cccc(C(=O)OC(C)OC(=O)OC3CCCCC3)c2n1Cc1ccc(-c2ccccc2-c2nn[nH]n2)cc1 (stereo not drawn) [candesartan cilexetil] | significant relief of symptoms | significant relief of symptoms | –
2 | CCCCC1=NC2(CCCC2)C(=O)N1Cc1ccc(-c2ccccc2-c2nnn[nH]2)cc1 [irbesartan] | – | – | significant reduction
